Common to all, as to assay type: biochemical
Assay [1] has as its target JAK3 (Homo sapiens (Human), UniProt P52333). Briefly: JAK3 Inhibition Assay (Omnia kinase fluorescence peptide substrate assay, 1 mM ATP). The text has this: (§1) The assays described in Examples A, B, C and D for the determination of Tyk2, JAK1, JAK2 and JAK3 kinase activity, respectively, utilized the Omnia® Kinase fluorescence peptide substrate-based technology (Invitrogen). The specific components of the assay mixture are described in Examples A, B, C and D. In these assays, Mg^2+ is chelated upon phosphorylation of the Omnia peptide by the kinase to form a bridge between the chelation-enhanced fluorophore Sox and the phosphate, resulting in an increase in fluorescence emission at 485 nm when excited at […]. The reactions were therefore read at excitation 360 nm and emission was measured at 485 nm every 50 seconds for 45 minutes using a PerkinElmer EnVision Multilabel Plate Reader.
(§2) The final buffer conditions for Tyk2, JAK1, JAK2, and JAK3 assays were as follows: 25 mM HEPES, pH 7.4, 10 mM MgCl2, 0.01% Triton X-100 and 1 mM DTT.
(§3) Two-μL aliquots of these were transferred to a fresh plate for a ten-fold intermediate dilution with assay buffer. Five-μL aliquots of the diluted compounds were then transferred to 20-μL of assay mixtures described in Examples A, B, C and D for a final concentration of DMSO of 2%. […] For each plate, percent of control (POC) values were calculated for each well according to the following equation:
(§4) where Xmax=Average Uninhibited Controls • Xmin=Average Background IC50's were estimated from the POC's using a standard 4-parameter logistic model:
(§5) where A=Minimum Y (Bottom Asymptote) • B=Maximum Y (Top Asymptote) • C=EC50 • D=Slope Factor • X=Compound Concentration (nM) • Y=POC
(§6) The IC50 is defined as the concentration of inhibitor at which the POC equals 50 for the fitted curve.
Compounds of Formula I were screened for their ability to inhibit JAK3 using the general enzyme inhibition assay method, in which the assay mixture contained 1 mM ATP, 10 μM Omnia® Y7 peptide (Catalog # IVGN KNZ3071C, Invitrogen Corporation, Carlsbad, Calif.) and 2 nM JAK3 in a total volume of 25 μL. JAK3 was purchased from Invitrogen Corporation, Carlsbad, Calif. (catalog # IVGN PV4080).

Assay [2] has as its target Human Tyk2 kinase domain (Homo sapiens (Human), UniProt P29597). Briefly: Tyk2 Inhibition Assay (Omnia kinase fluorescence peptide substrate assay, 1 mM ATP).
Description: as §1, §2, §3, §4, §5, §6
Compounds of Formula I were screened for their ability to inhibit Tyk2 using the general enzyme inhibition assay method, in which the assay mixture contained 1 mM ATP, 8 μM Omnia® Y12 peptide (Catalog # IVGN KPZ3121C; Invitrogen Corporation, Carlsbad, Calif.) and 1 nM Tyk2 in a total volume of 25 μL. […]

For assay [3], the target named is JAK1 (Homo sapiens (Human), UniProt P23458). Briefly: JAK1 Inhibition Assay (Omnia kinase fluorescence peptide substrate assay, 1 mM ATP).
JAK1, sequence (P23458 866-1154): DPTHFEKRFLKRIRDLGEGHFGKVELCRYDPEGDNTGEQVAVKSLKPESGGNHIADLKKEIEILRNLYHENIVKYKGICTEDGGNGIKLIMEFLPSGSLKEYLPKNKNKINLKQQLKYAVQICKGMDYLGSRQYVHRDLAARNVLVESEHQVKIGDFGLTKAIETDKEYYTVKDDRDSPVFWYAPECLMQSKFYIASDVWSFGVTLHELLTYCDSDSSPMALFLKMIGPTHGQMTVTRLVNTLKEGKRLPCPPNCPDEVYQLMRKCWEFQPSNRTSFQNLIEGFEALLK
Description: as §1, §2
Two-μL aliquots of these were transferred to a fresh plate for a ten-fold intermediate dilution with assay buffer. Five-μL aliquots of the diluted compounds were then transferred to 20-μL of assay mixtures described in Examples A, B, C and D for a final concentration of DMSO of 2%. […] For each plate, percent of control (POC) values were calculated for each well according to the following equation: […]

The target of assay [4] is JAK2 (Homo sapiens (Human), UniProt O60674). Briefly: JAK2 Inhibition Assay (Omnia kinase fluorescence peptide substrate assay, 1 mM ATP).
JAK2, sequence (O60674 808-1132): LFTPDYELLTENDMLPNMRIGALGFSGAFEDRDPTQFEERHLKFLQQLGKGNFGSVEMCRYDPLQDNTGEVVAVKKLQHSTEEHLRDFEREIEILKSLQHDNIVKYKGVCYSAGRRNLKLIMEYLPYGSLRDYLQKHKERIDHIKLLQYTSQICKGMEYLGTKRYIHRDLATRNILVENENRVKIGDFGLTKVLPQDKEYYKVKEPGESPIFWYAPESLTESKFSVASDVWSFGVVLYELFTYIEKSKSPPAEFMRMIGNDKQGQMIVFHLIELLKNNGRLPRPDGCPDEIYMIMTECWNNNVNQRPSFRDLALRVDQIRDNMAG
Description: as §1, §2, §3, §4, §5, §6
Compounds of Formula I were screened for their ability to inhibit JAK2 using the general enzyme inhibition assay method, in which the assay mixture contained 1 mM ATP, 10 μM Omnia® Y7 peptide (Catalog # IVGN KNZ3071C, Invitrogen Corporation, Carlsbad, Calif.) and 4 nM JAK2 in a total volume of 25 μL. JAK2 was purchased from Invitrogen Corporation, Carlsbad, Calif. (catalog # IVGN PV4288).

Where [5] appears, read: read-out: TYK2 Enzyme IC50 1 mM ATP, 1 mM ATP, averaged IC50 ranges.
Setting [6] is: read-out: JAK2 Enzyme IC50 1 mM ATP, 1 mM ATP, averaged IC50 ranges.

Like-named read-outs stand apart in the source and are kept apart here.

This is an account of results in US11028093B2, “4,6-substituted-pyrazolo[1,5-a]pyrazines as janus kinase inhibitors” (Array BioPharma Inc., priority 2014, dated 2021).

JAK3, sequence (P52333 781-1124): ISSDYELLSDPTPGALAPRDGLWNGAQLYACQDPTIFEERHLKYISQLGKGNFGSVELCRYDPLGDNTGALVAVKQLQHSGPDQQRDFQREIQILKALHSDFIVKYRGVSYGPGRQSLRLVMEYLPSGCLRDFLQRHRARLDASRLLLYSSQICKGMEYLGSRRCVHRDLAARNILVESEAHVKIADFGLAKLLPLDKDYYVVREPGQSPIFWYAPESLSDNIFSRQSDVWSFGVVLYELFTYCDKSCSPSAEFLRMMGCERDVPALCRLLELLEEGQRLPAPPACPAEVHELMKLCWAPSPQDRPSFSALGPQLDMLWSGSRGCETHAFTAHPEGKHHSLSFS
Human Tyk2 kinase domain, sequence (P29597 886-1187): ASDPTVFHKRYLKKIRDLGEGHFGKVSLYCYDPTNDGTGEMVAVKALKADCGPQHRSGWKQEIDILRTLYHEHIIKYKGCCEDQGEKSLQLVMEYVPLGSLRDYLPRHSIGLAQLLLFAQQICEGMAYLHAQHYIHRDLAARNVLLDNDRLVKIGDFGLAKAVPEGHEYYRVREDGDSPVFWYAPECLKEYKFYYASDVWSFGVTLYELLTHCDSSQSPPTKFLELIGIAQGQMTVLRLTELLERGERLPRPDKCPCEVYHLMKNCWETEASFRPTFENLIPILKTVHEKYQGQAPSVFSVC

For orientation: IC50 means the concentration at which inhibition is half-maximal. In assay [1], `CCC(CC)n1cc(-c2nc(-c3cnn([C@H]4CC[C@@H](O)CC4)c3)cn3nccc23)cn1` [Example 121, cis-4-(4-(4-(1-(pentan-3-yl)-1H-pyrazol-4-yl)pyrazolo[1,5-a]pyrazin-6-yl)-1H-pyrazol-1-yl)cyclohexanol] came in with an IC50 of 1000 to 10000 nM. The same measure, in the same setting: in the case of `CCC(CC)n1cc(-c2nc(-c3cnn([C@H]4C[C@@](C)(O)C4)c3)cn3nccc23)cn1` [Example 162, (1s,3 s)-1-methyl-3-(4-(4-(1-(pentan-3-yl)-1H-pyrazol-4-yl)pyrazolo[1,5-a]pyrazin-6-yl)-1H-pyrazol-1-yl)cyclobutanol] it was 1000 to 10000 nM; in that of `CCC(CC)n1cc(-c2nc(-c3cnn([C@H]4CC[C@H](O)CC4)c3)cn3nccc23)cn1` [Example 118, trans-4-(4-(4-(1-(pentan-3-yl)-1H-pyrazol-4-yl)pyrazolo[1,5-a]pyrazin-6-yl)-1H-pyrazol-1-yl)cyclohexanol], 1000 to 10000 nM. Consider `CC[C@@H](CC1CC1)n1cc(-c2nc(-c3cnn(C[C@@H](O)CO)c3)cn3nccc23)cn1` [Example 205, (R)-3-(4-(4-(1-((S)-1-cyclopropylbutan-2-yl)-1H-pyrazol-4-yl)pyrazolo[1,5-a]pyrazin-6-yl)-1H-pyrazol-1-yl)propane-1,2-diol], for which the IC50 in assay [2] lay within 10 to 100 nM; in assay [3] it was 100 to 1000 nM; in assay [4], 10 to 100 nM; in assay [1], 1000 to 10000 nM. As for “(R)-3-(4-(4-(1-((S)-2,2-dimethylcyclopentyl)-1H-pyrazol-4-yl)pyrazolo[1,5-a]pyrazin-6-yl)-1H-pyrazol-1-yl)propane-1,2-diol [Example 95]”, the IC50 in assay [2] (setting [5]) and in assay [4] (setting [6]) was 1000 to 10000 nM each time. Take “(1s,3s)-3-(4-(4-(1-(pentan- 3-yl)-1H-pyrazol-4- yl)pyrazolo[1,5-a]pyrazin- 6-yl)-1H-pyrazol-1-yl) cyclobutanecarboxamide [Example 168]”: the IC50 in assay [3] (read-out: JAK1 Enzyme IC50 1 mM ATP, 1 mM ATP, averaged IC50 ranges) fell in the range of 1000 to 10000 nM; in assay [4] (setting [6]), 10 to 100 nM; in assay [1] (read-out: JAK3 Enzyme IC50 1 mM ATP, 1 mM ATP, averaged IC50 ranges), 1000 to 10000 nM. On to `CCC1(n2cc(-c3nc(-c4cnn(C)c4)cn4nccc34)cn2)CN(S(=O)(=O)C(F)(F)F)C1` [Example 48, 4-(1-(3-ethyl-1-((trifluoromethyl)sulfonyl)azetidin-3-yl)-1H-pyrazol-4-yl)-6-(1-methyl-1H-pyrazol-4-yl)pyrazolo[1,5-a]pyrazine], for which the IC50 in assay [2] (setting [5]) and in assay [4] (setting [6]) was < 10 nM each time. For `CCC(CC)n1cc(-c2nc(-c3cnn(C4CN(S(C)(=O)=O)C4)c3)cn3nccc23)cn1` [Example 37, 6-(1-(1-(methylsulfonyl)azetidin-3-yl)-1H-pyrazol-4-yl)-4-(1-(pentan-3-yl)-1H-pyrazol-4-yl)pyrazolo[1,5-a]pyrazine], the IC50 in assay [4] (setting [6]) was < 10 nM.
